Consider 20 molecules from patent US6476022B1, “Oxathiepino[6,5-b]dihydropyridines, and related compositions and methods” (Ortho-McNeil Pharmaceutical, Inc., priority 1999, dated 2002).

SMILES strings stand for the structures. pIC50: −log10 of the molar value.

T1 sequence (P15381 whole entry, other chains not shown): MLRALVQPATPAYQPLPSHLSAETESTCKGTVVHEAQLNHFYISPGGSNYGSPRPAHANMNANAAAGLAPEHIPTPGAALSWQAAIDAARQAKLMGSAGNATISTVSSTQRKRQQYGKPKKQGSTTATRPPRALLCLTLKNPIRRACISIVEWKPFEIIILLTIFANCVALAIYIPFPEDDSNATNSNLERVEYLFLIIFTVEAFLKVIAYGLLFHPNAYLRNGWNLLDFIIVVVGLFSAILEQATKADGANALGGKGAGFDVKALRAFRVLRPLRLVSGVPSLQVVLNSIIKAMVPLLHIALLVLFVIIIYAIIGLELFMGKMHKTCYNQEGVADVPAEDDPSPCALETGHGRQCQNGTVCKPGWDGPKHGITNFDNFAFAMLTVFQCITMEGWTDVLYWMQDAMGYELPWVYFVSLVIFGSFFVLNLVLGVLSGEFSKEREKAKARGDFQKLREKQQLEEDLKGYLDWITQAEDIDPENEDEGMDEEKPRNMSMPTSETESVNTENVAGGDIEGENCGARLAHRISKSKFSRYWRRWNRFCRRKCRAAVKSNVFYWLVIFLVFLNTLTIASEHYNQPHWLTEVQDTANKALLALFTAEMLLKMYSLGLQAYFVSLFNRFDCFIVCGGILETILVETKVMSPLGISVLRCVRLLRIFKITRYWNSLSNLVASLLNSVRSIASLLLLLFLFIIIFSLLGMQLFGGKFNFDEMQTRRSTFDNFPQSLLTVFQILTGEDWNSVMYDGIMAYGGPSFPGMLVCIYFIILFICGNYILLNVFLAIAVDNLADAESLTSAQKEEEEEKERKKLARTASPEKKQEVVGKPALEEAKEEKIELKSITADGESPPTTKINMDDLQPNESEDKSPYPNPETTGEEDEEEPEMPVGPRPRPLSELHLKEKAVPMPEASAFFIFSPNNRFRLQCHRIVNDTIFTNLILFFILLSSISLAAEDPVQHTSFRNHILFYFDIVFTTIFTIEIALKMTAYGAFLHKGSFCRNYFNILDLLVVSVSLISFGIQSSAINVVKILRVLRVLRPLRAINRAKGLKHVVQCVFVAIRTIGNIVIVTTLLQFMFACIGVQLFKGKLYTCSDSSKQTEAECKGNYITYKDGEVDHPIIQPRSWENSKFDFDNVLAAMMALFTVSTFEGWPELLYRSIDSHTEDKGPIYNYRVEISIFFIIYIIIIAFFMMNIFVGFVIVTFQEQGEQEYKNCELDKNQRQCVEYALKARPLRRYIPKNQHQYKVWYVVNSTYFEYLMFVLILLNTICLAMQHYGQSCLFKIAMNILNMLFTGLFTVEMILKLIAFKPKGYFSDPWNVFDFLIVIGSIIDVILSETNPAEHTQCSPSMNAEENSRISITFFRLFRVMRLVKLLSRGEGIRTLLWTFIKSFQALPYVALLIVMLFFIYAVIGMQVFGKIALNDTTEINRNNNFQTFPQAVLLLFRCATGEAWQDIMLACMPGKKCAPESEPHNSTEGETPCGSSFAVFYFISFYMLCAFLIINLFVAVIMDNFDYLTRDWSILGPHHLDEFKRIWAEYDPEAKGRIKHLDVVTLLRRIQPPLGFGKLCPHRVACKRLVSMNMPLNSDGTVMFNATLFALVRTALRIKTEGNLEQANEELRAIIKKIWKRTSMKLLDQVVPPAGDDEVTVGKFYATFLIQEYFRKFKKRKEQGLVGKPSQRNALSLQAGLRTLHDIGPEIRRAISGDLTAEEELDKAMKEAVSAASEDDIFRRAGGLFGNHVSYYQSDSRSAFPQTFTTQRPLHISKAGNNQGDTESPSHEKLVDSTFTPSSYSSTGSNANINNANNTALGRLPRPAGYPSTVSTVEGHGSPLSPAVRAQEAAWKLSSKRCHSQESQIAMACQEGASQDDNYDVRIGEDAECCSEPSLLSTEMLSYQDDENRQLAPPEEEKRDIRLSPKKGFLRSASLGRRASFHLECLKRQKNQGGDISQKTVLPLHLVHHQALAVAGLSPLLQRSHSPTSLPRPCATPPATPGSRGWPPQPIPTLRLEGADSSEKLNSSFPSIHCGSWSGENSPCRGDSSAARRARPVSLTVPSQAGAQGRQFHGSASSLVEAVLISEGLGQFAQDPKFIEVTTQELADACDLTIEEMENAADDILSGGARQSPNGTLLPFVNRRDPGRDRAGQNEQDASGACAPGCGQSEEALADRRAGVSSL
T1 sequence (P13806 27-960 partner limits assumed, other chains not shown): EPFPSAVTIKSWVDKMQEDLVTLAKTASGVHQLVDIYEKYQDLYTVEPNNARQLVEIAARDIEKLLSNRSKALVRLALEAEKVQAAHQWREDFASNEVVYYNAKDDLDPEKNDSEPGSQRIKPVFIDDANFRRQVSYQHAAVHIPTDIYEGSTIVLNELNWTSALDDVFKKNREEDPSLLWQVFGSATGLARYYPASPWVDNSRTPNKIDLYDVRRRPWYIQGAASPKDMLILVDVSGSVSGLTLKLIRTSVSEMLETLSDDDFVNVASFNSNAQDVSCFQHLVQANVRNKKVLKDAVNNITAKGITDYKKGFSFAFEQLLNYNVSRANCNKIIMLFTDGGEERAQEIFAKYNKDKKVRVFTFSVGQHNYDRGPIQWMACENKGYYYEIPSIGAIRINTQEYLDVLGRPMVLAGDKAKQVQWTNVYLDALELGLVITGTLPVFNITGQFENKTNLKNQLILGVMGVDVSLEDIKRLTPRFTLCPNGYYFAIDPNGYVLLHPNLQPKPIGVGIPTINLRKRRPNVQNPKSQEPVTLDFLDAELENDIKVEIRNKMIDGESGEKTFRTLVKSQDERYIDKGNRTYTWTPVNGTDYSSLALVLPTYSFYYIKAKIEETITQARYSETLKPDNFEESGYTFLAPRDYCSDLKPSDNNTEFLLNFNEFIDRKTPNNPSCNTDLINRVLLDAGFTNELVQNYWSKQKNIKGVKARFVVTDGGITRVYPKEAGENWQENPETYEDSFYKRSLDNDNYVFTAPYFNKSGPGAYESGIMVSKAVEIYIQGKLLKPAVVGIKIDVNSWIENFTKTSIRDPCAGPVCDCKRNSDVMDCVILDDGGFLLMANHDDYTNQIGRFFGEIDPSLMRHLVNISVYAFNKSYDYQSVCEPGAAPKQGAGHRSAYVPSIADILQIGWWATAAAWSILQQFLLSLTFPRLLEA
T1 sequence (P13806 961-1106 partner limits assumed, other chains not shown): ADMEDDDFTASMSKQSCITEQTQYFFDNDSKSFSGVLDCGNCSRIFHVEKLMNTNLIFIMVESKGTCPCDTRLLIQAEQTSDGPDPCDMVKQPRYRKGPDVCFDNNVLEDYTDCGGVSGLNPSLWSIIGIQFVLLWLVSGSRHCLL

One experiment addresses T1, calcium channel (3H-nitrendipine binding, heart membranes) (Oryctolagus cuniculus, UniProt P15381).
T1 construct: from tissue; host or cells: rabbit heart (crude membrane pellet)
Description: Assay for inhibition of nitrendipine binding (3H-nitrendipine, rabbit heart membranes). The conditions noted are these: 3H-nitrendipine 0.05-0.50 nM, 90 minutes at 4° C., compounds of Formula I (Table 1). The method, then: Female, New Zealand white rabbits (1-2 kg) are sacrificed by cervical dislocation, and the heart is immediately removed, cleaned and chopped into small pieces. The tissue is homogenized in 5×volume of 0.05M Hepes buffer, pH 7.4. The homogenate is centrifuged at 4000 g for 10 minutes, and the supernatant is re-centrifuged at 42,000 g for 90 minutes. The resulting membrane pellet is resuspended (0.7 ml/g weight) in 0.05M Hepes, pH 7.4 and stored at […] until used. Each tube of the binding assay contains ^3H-nitrendipine (0.05-0.50 nM), buffer, membranes (0.10 ml ), and test compound in a total volume of 1.0 ml . After 90 minutes at 4° C., the bound nitrendipine is separated from the unbound by filtration on Whatman GF/C filters. After rinsing, the filters are dried and counted in a liquid scintillation counter.
Non-specifically bound ^3H-nitrendipine (i.e., the amount bound in the presence of excess unlabelled nitrendipine) is subtracted from the total bound to obtain specifically-bound radiolabeled nitrendipine. The amount of specifically-bound nitrendipine in the presence of a test compound is compared to the amount bound in the absence of the compound. A percent displacement (or inhibition) can then be obtained.
Take `CC1=C(C(=O)OCCN(C)Cc2ccccc2)C(c2cccc([N+](=O)[O-])c2)C2=C(COCCS2(=O)=O)N1` (stereo not drawn) [Compound 1, 5H-[1,4]oxathiepino[6,5-b]pyridine-8-carboxylic acid, 2,3,6,9-tetrahydro-7-methyl-9-(3-nitrophenyl), 2-[methyl(phenylmethyl)amino]ethyl ester, 1,1-dioxide]: the pIC50 (in general, the IC50 on a negative log10 scale, so that one unit is a factor of ten) was 7.41.
On to `COC(=O)C1=C(C)NC2=C(C1c1ccccc1Cl)S(=O)(=O)CCOC2` (stereo not drawn) [Compound 2, 5H-[1,4]oxathiepino[6,5-b]pyridine-8-carboxylic acid, 9-(2-chlorophenyl)-2,3,6,9-tetrahydro-7-methyl, methyl ester, 1,1-dioxide], for which the pIC50 is 7.92.
As to `CC1=C(C(=O)OCCN(C)Cc2ccccc2)C(c2ccccc2Cl)C2=C(COCCS2(=O)=O)N1` (stereo not drawn) [Compound 3, 5H-[1,4]oxathiepino[6,5-b]pyridine-8-carboxylic acid, 9-(2-chlorophenyl)-2,3,6,9-tetrahydro-7-methyl, 2-[methyl(phenylmethyl)amino]ethyl ester, 1,1-dioxide], the pIC50 was 6.89.
Regarding `COC(=O)C1=C(C)NC2=C(C1c1cccc([N+](=O)[O-])c1)S(=O)(=O)CCOC2` (stereo not drawn) [Compound 4, 5H-[1,4]oxathiepino[6,5-b]pyridine-8-carboxylic acid, 2,3,6,9-tetrahydro-7-methyl-9-(3-nitrophenyl), methyl ester, 1,1-dioxide], the pIC50 was 7.34.
As for `COC(=O)C1=C(C)NC2=C(C1c1ccccc1[N+](=O)[O-])S(=O)(=O)CCOC2` (stereo not drawn) [Compound 5, 5H-[1,4]oxathiepino[6,5-b]pyridine-8-carboxylic acid, 2,3,6,9-tetrahydro-7-methyl-9-(2-nitrophenyl), methyl ester, 1,1-dioxide], the pIC50 is 7.47.
On to `COC(=O)C1=C(C)NC2=C(C1c1cccc(Cl)c1)S(=O)(=O)CCOC2` (stereo not drawn) [Compound 6, 5H-[1,4]oxathiepino[6,5-b]pyridine-8-carboxylic acid, 9-(3-chlorophenyl)-2,3,6,9-tetrahydro-7-methyl, methyl ester, 1,1-dioxide], for which the pIC50 was 7.68.
Regarding `CC1=C(C(=O)OCCN(C)Cc2ccccc2)C(c2cccc(Cl)c2)C2=C(COCCS2(=O)=O)N1` (stereo not drawn) [Compound 7, 5H-[1,4]oxathiepino[6,5-b]pyridine-8-carboxylic acid, 9-(3-chlorophenyl)-2,3,6,9-tetrahydro-7-methyl, 2-[methyl(phenylmethyl)amino]ethyl ester, 1,1-dioxide], the pIC50 was 7.89.
Regarding `CC1=C(C(=O)OCCN(C)Cc2ccccc2)C(c2ccccc2[N+](=O)[O-])C2=C(COCCS2(=O)=O)N1` (stereo not drawn) [Compound 8, 5H-[1,4]oxathiepino[6,5-b]pyridine-8-carboxylic acid, 2,3,6,9-tetrahydro-7-methyl-9-(2-nitrophenyl), 2-[methyl(phenylmethyl)amino]ethyl ester, 1,1-dioxide], the pIC50 was 7.07.

The same experiment, now with this note: 3H-nitrendipine, compounds of Formula IIa (Table 2).
Consider `CC1=C(C(=O)OCCOC(=O)c2ccccc2)C(c2c(F)cccc2Cl)C2=C(COCCS2(=O)=O)N1` (stereo not drawn) [Compound 10, 5H-[1,4]oxathiepino[6,5-b]pyridine-8-carboxylic acid, 9-(2-chloro-6-fluorophenyl)-2,3,6,9-tetrahydro-7-methyl-, 2-(benzoyloxy)ethyl ester, 1,1-dioxide], for which the pIC50 is 7.77.
Turning to `CC1=C(C(=O)OCCOC(=O)C2CCCCC2)C(c2c(F)cccc2Cl)C2=C(COCCS2(=O)=O)N1` (stereo not drawn) [Compound 11, 5H-[1,4]oxathiepino[6,5-b]pyridine-8-carboxylic acid, 9-(2-chloro-6-fluorophenyl)-2,3,6,9-tetrahydro-7-methyl-, 2-[(cyclohexylcarbonyl)oxy]ethyl ester, 1,1-dioxide], the pIC50 was 7.02.
In the case of `CC(=O)OCCOC(=O)C1=C(C)NC2=C(C1c1c(F)cccc1Cl)S(=O)(=O)CCOC2` (stereo not drawn) [Compound 12, 5H-[1,4]oxathiepino[6,5-b]pyridine-8-carboxylic acid, 9-(2-chloro-6-fluorophenyl)-2,3,6,9-tetrahydro-7-methyl-, 2-(acetyloxy)ethyl ester, 1,1-dioxide], the pIC50 was 6.24.
On the same count and under the same terms, under `CC1=C(C(=O)OCCOC(=O)C2CC2)C(c2c(F)cccc2Cl)C2=C(COCCS2(=O)=O)N1` (stereo not drawn) [Compound 13, 5H-[1,4]oxathiepino[6,5-b]pyridine-8-carboxylic acid, 9-(2-chloro-6-fluorophenyl)-2,3,6,9-tetrahydro-7-methyl-, 2-[(cyclopropylcarbonyl)oxy]ethyl ester, 1,1-dioxide] stands 6.38; under `CC1=C(C(=O)OCCOC(=O)C(C)C)C(c2c(F)cccc2Cl)C2=C(COCCS2(=O)=O)N1` (stereo not drawn) [Compound 14, 5H-[1,4]oxathiepino[6,5-b]pyridine-8-carboxylic acid, 9-(2-chloro-6-fluorophenyl)-2,3,6,9-tetrahydro-7-methyl-, 2-(2-methyl-1-oxopropoxy)ethyl ester, 1,1-dioxide], 7.22.
Take `CC1=C(C(=O)OCCO)C(c2ccccc2Cl)C2=C(COCCS2(=O)=O)N1` (stereo not drawn) [Compound 15, 5H-[1,4]oxathiepino[6,5-b]pyridine-8-carboxylic acid, 9-(2-chlorophenyl)-2,3,6,9-tetrahydro-7-methyl-, 2-hydroxyethyl ester, 1,1-dioxide]: the pIC50 was 4.70.
As to `CC1=C(C(=O)OCCCOC(=O)c2ccccc2)C(c2ccccc2Cl)C2=C(COCCS2(=O)=O)N1` (stereo not drawn) [Compound 16, 5H-[1,4]oxathiepino[6,5-b]pyridine-8-carboxylic acid, 9-(2-chlorophenyl)-2,3,6,9-tetrahydro-7-methyl-, 3-(benzoyloxy)propyl ester, 1,1-dioxide], the pIC50 is 7.40.
In the case of `CC1=C(C(=O)OCCOC(=O)C(C)C)C(c2ccccc2Cl)C2=C(COCCS2(=O)=O)N1` (stereo not drawn) [Compound 17, 5H-[1,4]oxathiepino[6,5-b]pyridine-8-carboxylic acid, 9-(2-chlorophenyl)-2,3,6,9-tetrahydro-7-methyl-, 2-(2-methyl-1-oxopropoxy)ethyl ester, 1,1-dioxide], the pIC50 was 7.44.
On the same count and under the same terms, under `CC1=C(C(=O)OCc2oc(=O)oc2-c2ccccc2)C(c2cccc(Cl)c2Cl)C2=C(COCCS2(=O)=O)N1` (stereo not drawn) [Compound 18, 5H-[1,4]oxathiepino[6,5-b]pyridine-8-carboxylic acid, 9-(2,3-dichlorophenyl)-2,3,6,9-tetrahydro-7-methyl-, (2-oxo-5-phenyl-1,3-dioxol-4-yl)methyl ester, 1,1-dioxide] stands 7.68; under `CC1=C(C(=O)OCc2oc(=O)oc2C)C(c2cccc(Cl)c2Cl)C2=C(COCCS2(=O)=O)N1` (stereo not drawn) [Compound 19, 5H-[1,4]oxathiepino[6,5-b]pyridine-8-carboxylic acid, 9-(2,3-dichlorophenyl)-2,3,6,9-tetrahydro-7-methyl-, (5-methyl-2-oxo-1,3-dioxol4-yl)methyl ester, 1,1-dioxide], 7.74.
Still for that read-out and setting: to `CC1=C(C(=O)OCCO)C(c2c(F)cccc2Cl)C2=C(COCCS2(=O)=O)N1` (stereo not drawn) [Compound 20] belongs 5.36; to `CC1=C(C(=O)OCCCO)C(c2ccccc2Cl)C2=C(COCCS2(=O)=O)N1` (stereo not drawn) [Compound 21], 6.25.

Another experiment relates to trachea (trachealis muscle tissue). The experiment in a line: Test for inhibition of calcium-dependent smooth muscle contraction (KCl-challenged tracheal rings). The format is cell-based. The following applies: Canis lupus familiaris, 10 min; dog tracheal rings, 50 mM KCl challenge, test compound added for 10 minutes. As for the experimental part:
The trachea and the aorta from dogs sacrificed by excess KCl injection are stored overnight at 4° C. in oxygenated Krebs-Henseleit buffer. Tracheal rings, one cartilage segment wide (5-10 mm), are cut starting from the bronchial end. Rings of aorta tissue of the same width are also prepared. After cutting the cartilage, the trachealis muscle tissue and the aorta tissue are suspended in oxygenated Krebs-Henseleit buffer at 37° C. in a 25 ml tissue bath. After a 60-minute equilibration period, the tissues are challenged with 10 μM carbachol. After 5 minutes, the tissues are rinsed and allowed to rest 50 minutes. The tissues are then challenged with 50 mM KCl and, after 30 minutes, the contractions are quantitated. The tissues are then rinsed and re-equilibrated for 50 minutes. Test compounds are then added for 10 minutes, and the tissue is rechallenged with 50 mM KCl. After 30 minutes, the contraction is recorded and used to determine the % inhibition of control. The percent inhibition of smooth muscle contraction is calculated as follows from response data before and after drug treatment:
% inhibition=100−100×peak response after drug treatment/peak response before drug treatment
Regarding `CC1=C(C(=O)OCCN(C)Cc2ccccc2)C(c2ccccc2Cl)C2=C(COCCS2(=O)=O)N1` (stereo not drawn) [Compound 3, 5H-[1,4]oxathiepino[6,5-b]pyridine-8-carboxylic acid, 9-(2-chlorophenyl)-2,3,6,9-tetrahydro-7-methyl, 2-[methyl(phenylmethyl)amino]ethyl ester, 1,1-dioxide], the pIC50 is 7.26.
